Here are results for ten compounds from ChEMBL document CHEMBL1201862, “PubChem BioAssay data set” (2004).

SMILES strings stand for the structures. The source made the active and inactive calls. Some results are limits rather than exact numbers.

The target in test [1] is T1, Short transient receptor potential channel 4 (Mus musculus, UniProt Q9QUQ5).
T1 sequence (Q9QUQ5 whole entry): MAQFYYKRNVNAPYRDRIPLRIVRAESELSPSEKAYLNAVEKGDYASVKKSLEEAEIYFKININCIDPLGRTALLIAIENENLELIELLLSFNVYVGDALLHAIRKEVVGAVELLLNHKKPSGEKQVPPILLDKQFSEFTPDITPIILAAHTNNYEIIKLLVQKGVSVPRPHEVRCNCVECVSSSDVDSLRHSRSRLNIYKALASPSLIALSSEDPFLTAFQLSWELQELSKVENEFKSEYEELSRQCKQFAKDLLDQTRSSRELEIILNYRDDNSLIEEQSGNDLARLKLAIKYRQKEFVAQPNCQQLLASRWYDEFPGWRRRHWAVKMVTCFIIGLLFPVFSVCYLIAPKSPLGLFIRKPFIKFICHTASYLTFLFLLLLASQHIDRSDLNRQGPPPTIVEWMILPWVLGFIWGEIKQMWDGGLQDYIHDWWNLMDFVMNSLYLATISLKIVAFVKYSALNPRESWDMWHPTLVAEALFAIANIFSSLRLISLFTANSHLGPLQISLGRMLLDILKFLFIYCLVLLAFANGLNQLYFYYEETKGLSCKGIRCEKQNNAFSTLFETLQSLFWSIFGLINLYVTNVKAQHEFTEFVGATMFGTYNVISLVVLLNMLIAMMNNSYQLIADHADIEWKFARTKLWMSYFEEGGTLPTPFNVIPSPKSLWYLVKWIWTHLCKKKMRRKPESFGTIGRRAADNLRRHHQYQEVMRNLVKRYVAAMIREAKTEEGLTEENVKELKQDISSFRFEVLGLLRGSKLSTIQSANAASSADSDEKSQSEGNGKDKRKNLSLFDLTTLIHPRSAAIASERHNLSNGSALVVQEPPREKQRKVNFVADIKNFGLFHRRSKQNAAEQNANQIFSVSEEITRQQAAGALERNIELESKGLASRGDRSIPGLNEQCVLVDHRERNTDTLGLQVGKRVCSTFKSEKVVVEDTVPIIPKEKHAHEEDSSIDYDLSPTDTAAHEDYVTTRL
The test is described as follows: TRPC4 positive allosteric modulators, dose response, cell-based, HEK293 TRPC4/mu-opioid, Fluo-4 calcium, EC20 DAMGO (AID 434941).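 Further: HEK293 cells coexpressing TRPC4 and mu opioid receptor stimulated by EC20 DAMGO.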 Type of test: functional.

A short description of test [2]: inhibitors of intracellular T. cruzi replication, confirmation, NIH3T3 host cells, beta-gal luminescence (AID 2044).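 Further: intracellular parasites grown in NIH/3T3 mouse fibroblasts as host cells; luminescent beta-galactosidase reporter signal from transgenic T. cruzi replicating inside host cells; inhibitors lower the luminescence signal.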 Type of test: functional, cell-based.
A short description of test [3]: cytotoxicity toward NIH3T3 fibroblasts, dose response, counter-screen, cell-based, ATP luminescence, mouse fibroblasts (AID 2010).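 Further: cells exposed to compound for about 90 hours before reading.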 The format is functional.
Test [4] addresses T1, Short transient receptor potential channel 4. The test is described as follows: mouse TRPC4 channel activators, dose response, cell-based, HEK293 TRPC4/mu-opioid, Fluo-4 calcium (AID 434937). The format is functional.
The target in test [5] is T2, Alkaline phosphatase, tissue-nonspecific isozyme (Homo sapiens, UniProt P05186).
T2 sequence (P05186 whole entry): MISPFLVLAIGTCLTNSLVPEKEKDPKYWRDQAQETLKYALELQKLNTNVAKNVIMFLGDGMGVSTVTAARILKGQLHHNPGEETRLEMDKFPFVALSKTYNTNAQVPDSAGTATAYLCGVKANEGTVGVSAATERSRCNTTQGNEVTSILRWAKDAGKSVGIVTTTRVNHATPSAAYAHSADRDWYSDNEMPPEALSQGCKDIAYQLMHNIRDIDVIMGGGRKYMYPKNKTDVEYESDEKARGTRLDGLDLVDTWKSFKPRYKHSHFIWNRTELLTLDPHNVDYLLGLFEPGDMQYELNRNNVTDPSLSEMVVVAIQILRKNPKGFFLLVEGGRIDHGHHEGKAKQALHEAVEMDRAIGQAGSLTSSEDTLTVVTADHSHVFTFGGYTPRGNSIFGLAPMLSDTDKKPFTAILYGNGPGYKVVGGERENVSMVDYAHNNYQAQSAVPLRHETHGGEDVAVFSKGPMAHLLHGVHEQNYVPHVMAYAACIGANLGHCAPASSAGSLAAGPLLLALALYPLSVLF
The test is described as follows: human TNAP enzyme inhibitors, SAR follow-up, biochemical, luminescent, dose response (AID 1056).

The target of test [6] is Alkaline phosphatase, placental type (Homo sapiens, UniProt P05187). The test is described as follows: PLAP enzyme inhibitors, confirmation, biochemical, luminescence (AID 1512). Type of test: functional.
In the next test the target is T3, Phosphomannomutase 2 (Homo sapiens, UniProt O15305).
T3 sequence (O15305 whole entry): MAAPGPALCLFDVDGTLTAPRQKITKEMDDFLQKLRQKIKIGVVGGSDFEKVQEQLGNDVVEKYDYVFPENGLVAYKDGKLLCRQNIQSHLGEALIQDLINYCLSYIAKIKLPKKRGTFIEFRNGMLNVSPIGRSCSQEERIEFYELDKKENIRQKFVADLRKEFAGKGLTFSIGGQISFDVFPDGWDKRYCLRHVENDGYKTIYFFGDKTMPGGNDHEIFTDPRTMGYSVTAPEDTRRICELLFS
The test is described as follows: Counter screen SAR assay for PMM2 inhibitors via a fluorescence intensity assay. [Related pubchem assays (depositor defined):AID1545, AID1574].

A further test deals with Hexokinase (Trypanosoma brucei, UniProt Q38C41). The test is described as follows: Confirmation assay for inhibitors of Trypanosoma brucei hexokinase 1-Analogue-first series. [Related pubchem assays (depositor defined):AID1430, AID1632, AID2516, AID2560, AID2579, AID2600, AID449725, AID492951]. Type of test: functional.
Test [7] can be described thus: HeLa cell cytotoxicity, dose response, cytotoxicity control for MgcRacGAP inhibitor project (AID 624300). Type of test: functional.
In test [8] the target is T4, Rac GTPase-activating protein 1 (Homo sapiens, UniProt Q9H0H5).
T4 sequence (Q9H0H5 whole entry): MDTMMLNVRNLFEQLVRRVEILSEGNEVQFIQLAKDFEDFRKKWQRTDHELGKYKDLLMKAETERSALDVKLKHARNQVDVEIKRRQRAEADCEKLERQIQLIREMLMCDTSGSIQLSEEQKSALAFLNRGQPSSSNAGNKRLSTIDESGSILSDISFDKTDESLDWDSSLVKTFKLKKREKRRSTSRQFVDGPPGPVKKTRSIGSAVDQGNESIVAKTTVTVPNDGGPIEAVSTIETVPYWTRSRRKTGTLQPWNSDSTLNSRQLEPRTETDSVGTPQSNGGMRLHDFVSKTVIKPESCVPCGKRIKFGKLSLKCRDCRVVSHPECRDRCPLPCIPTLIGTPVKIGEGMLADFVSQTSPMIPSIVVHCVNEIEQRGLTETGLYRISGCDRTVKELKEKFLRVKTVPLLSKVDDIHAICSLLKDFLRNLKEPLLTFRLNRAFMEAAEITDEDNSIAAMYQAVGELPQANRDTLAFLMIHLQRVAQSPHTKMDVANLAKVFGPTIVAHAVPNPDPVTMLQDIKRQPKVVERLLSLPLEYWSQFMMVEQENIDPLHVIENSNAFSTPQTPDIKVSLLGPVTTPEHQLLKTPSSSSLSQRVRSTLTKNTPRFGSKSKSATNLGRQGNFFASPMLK
The test is described as follows: MgcRacGAP GTPase-activating activity inhibitors, confirmation, biochemical, ADP Hunter fluorescence, primary and confirmatory (AID 624330). The format is functional.

Test [9] concerns the target Glucose-6-phosphate 1-dehydrogenase (Homo sapiens, UniProt P11413). The test is described as follows: human G6PD enzyme inhibitors, dose response, selectivity assay for P. falciparum G6PD inhibitor project, biochemical, fluorescence (AID 504792). The format is functional.
Test [10] concerns the target DNA dC->dU-editing enzyme APOBEC-3A (Homo sapiens, UniProt P31941). The test is described as follows: APOBEC3A DNA deaminase inhibitors, dose response, biochemical (AID 504722). The format is functional.
Test [11] deals with DNA dC->dU-editing enzyme APOBEC-3G (Homo sapiens, UniProt Q9HC16). The test is described as follows: Dose Response confirmation of small molecule APOBEC3G DNA Deaminase Inhibitors via a fluorescence-based single-stranded DNA deaminase assay. [Related pubchem assays (depositor defined):AID493012, AID493028]. The format is functional.
Test [12] can be described thus: M. tuberculosis growth inhibition, HTS (AID 449762). The format is functional.
Test [13] concerns HEK293. The test is described as follows: NOD1 signaling inhibitors, primary screen, cell-based, luminescence, uHTS (AID 1578). Type of test: functional. Particulars: Homo sapiens.
Test [14] has as its system HEK293. The test is described as follows: NOD2 signaling inhibitors in MDP-stimulated cells, cell-based, uHTS, luminescence (AID 2001). Type of test: functional. The note with it: Homo sapiens.
Test [15] addresses Nucleotide-binding oligomerization domain-containing protein 2 (Homo sapiens, UniProt Q9HC29). The test is described as follows: NOD2 signaling inhibitors, cell-based, luminescence, uHTS, HEK293 (AID 1566). Type of test: functional.
In test [16] the test system is HEK293. The test is described as follows: cells. The format is functional, cell-based. The note with it: Homo sapiens.
Test [17] relates to HEK293. The test is described as follows: cells. Type of test: functional, cell-based. Particulars: Homo sapiens. This is another data set of the same source.
Test [18] relates to HEK293. The test is described as follows: cells. Type of test: functional, cell-based. The note with it: Homo sapiens. The source holds these as a separate data set.
Test [19] addresses Glyceraldehyde-3-phosphate dehydrogenase (Homo sapiens, UniProt P04406).

Sequence of Nucleotide-binding oligomerization domain-containing protein 2 (Q9HC29 whole entry, the tested form may be a part): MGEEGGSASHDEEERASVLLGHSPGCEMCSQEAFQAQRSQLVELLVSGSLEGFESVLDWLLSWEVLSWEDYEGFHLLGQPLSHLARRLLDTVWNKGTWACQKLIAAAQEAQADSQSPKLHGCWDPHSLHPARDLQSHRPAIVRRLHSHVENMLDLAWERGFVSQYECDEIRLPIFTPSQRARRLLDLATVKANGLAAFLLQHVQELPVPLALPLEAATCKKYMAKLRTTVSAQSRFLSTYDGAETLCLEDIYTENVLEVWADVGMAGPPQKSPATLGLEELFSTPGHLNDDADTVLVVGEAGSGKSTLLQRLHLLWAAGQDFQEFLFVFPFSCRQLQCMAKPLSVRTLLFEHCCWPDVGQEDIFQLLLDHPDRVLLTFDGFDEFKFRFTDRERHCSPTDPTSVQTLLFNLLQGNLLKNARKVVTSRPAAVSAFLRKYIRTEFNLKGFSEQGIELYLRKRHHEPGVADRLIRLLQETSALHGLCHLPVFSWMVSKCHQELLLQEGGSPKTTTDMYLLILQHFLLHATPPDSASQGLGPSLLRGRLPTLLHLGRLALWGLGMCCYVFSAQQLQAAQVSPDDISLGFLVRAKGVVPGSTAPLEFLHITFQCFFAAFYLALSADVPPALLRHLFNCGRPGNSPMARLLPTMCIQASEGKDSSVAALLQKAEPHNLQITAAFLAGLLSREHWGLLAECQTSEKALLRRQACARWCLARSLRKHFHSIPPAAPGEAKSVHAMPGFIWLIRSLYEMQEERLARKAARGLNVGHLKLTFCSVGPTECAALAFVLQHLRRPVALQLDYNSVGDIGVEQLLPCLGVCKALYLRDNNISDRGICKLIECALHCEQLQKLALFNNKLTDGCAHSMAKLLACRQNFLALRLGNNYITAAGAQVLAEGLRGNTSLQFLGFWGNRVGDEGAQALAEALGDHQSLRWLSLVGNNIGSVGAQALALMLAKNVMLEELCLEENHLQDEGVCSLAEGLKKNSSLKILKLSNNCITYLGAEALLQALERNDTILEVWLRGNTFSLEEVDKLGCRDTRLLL
Sequence of DNA dC->dU-editing enzyme APOBEC-3G (Q9HC16 whole entry): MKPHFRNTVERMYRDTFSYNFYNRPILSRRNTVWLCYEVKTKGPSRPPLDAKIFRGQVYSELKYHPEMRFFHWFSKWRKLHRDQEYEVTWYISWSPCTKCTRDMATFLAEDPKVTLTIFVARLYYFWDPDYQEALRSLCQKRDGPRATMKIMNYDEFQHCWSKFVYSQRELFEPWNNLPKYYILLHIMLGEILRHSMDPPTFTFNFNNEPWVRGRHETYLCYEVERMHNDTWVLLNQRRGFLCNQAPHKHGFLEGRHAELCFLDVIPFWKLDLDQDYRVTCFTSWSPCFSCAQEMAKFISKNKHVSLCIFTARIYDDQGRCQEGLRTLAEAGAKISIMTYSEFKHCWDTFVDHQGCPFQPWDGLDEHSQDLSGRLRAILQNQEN
Sequence of Hexokinase (Q38C41 whole entry): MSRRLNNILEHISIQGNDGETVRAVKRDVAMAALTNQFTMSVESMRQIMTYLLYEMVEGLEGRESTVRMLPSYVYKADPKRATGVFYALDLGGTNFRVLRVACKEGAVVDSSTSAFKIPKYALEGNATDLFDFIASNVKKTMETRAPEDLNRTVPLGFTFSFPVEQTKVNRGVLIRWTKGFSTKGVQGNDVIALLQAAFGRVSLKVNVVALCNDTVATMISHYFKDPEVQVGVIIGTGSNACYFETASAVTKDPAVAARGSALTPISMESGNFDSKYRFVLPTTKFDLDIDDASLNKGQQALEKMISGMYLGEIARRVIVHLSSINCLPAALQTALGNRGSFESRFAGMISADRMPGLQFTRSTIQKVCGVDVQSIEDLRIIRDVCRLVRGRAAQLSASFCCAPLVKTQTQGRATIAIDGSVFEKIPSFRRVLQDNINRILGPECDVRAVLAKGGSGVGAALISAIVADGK
Sequence of DNA dC->dU-editing enzyme APOBEC-3A (P31941 whole entry): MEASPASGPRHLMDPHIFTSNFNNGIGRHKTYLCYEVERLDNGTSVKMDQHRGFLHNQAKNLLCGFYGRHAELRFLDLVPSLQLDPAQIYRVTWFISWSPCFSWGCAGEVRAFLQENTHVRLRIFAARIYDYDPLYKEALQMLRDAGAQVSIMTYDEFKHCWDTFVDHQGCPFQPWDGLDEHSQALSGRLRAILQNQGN
Sequence of Alkaline phosphatase, placental type (P05187 whole entry): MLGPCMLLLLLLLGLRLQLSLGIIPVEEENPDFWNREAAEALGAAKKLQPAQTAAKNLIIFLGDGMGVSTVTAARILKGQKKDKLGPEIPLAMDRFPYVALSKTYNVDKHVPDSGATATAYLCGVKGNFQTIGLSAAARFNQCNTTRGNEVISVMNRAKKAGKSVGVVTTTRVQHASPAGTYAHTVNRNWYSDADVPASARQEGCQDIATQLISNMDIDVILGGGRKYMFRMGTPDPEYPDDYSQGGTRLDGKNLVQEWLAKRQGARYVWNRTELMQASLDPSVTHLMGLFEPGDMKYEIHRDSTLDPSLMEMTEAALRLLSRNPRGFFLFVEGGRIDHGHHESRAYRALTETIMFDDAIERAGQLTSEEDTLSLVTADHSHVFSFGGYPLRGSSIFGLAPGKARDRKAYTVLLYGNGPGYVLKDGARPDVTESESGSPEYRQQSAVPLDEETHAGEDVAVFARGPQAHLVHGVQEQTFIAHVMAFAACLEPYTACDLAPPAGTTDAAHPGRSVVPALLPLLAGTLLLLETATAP
Sequence of Glyceraldehyde-3-phosphate dehydrogenase (P04406 whole entry): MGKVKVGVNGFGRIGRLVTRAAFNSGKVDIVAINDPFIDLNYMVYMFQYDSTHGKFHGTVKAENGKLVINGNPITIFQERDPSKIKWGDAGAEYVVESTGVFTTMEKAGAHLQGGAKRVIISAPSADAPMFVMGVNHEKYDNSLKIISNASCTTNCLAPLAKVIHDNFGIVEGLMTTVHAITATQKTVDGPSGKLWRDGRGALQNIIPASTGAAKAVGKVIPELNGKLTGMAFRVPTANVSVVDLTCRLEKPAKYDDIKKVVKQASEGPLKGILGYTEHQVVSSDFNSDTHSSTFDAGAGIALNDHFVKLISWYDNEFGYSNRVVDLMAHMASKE
Sequence of Glucose-6-phosphate 1-dehydrogenase (P11413 whole entry): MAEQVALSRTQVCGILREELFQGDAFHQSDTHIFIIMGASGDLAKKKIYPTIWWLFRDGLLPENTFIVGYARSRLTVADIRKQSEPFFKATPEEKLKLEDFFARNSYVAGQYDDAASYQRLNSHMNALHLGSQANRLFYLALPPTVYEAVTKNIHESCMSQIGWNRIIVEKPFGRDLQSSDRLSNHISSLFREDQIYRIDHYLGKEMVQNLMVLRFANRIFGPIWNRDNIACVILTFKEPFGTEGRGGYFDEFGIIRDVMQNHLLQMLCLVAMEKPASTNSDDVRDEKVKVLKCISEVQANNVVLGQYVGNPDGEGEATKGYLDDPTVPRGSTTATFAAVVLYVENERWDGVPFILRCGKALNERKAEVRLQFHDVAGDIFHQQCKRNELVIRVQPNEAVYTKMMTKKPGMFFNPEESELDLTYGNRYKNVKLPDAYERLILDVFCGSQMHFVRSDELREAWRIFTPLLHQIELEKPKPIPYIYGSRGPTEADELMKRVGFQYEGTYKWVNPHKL

With `CC1Cc2ccccc2N1C(=O)CSc1nc2c(c(=O)n(C)c(=O)n2C)n1Cc1ccccc1` (stereo not given), the EC50 in test [1] is 0.15 µM (active); in test [2], 4.07 µM (active); in [3] it was > 60 µM (not active); in test [4], 2.11 µM (active).
On to `Oc1ccc(C2=Nn3c(nnc3-c3ccccc3Cl)SC2)cc1O`, for which the IC50 is 4.02 µM (active) in test [5] and 15 µM (active) in test [6].
In the case of `O=c1c2ccccc2sn1-c1ccc(Cl)cc1`, the half-maximal inhibitory concentration (IC50) was 35.6 µM (active) on Phosphomannomutase 2, 1.1 µM (active) on Hexokinase, 34.7 µM (active) in [8] and 10.5 µM (active) in test [9]. Besides, in test [7], the CC50 was 100 µM (active).
On to `Cc1nn(-c2ccccc2)c(S)c1/C=N/CCC/N=C/c1c(C)nn(-c2ccccc2)c1S`, for which the IC50 in [10] was > 100 µM (inactive); in [11] it was 5.47 µM (active); in test [12], > 100 µM (active).
For the compound `CN(C)CCCOc1cccc(Cl)c1`, the EC50 in test [1] was 0.03 µM (active); in [4] it was 0.06 µM (active).
With `CCOC(=O)Cn1sc2ccccc2c1=O`, the IC50 at Hexokinase was 12.5 µM (active).
As to `COc1cccc(/C=N/n2c(S)nnc2-c2[nH]nc3c2CCC3)c1O`, the IC50 is > 100 µM (inactive) in [10], 2.48 µM (active) in test [11] and 53.9 µM (active) in test [8].
With `Cc1cc(OCC(=O)Nc2ccncc2)cc(C)c1Cl`, the EC50 in the test with HEK293 [13] is 2.46 µM (active); in [15], 8.48 µM (active). Moreover, the IC50 is 6.09 µM (active) in the test on HEK293 [14], 12.3 µM (active) with HEK293 [16], > 20 µM (inactive) in the test on HEK293 [17] and 4.41 µM (active) in the test on HEK293 [18].
As to `CCOc1ccc(-n2c(C)c(C(C)=O)c3cc(O)ccc32)cc1`, the EC50 (in the test on HEK293 [13]; in test [15]) was > 20 µM (inactive) each time. Also, the IC50 in the test with HEK293 [14] is 0.875 µM (active); in the test on HEK293 [16], > 20 µM (inactive); in the test on HEK293 [17], > 20 µM (inactive); with HEK293 [18], 0.451 µM (active).
In the case of `Cc1n[nH]c2c1C(=O)CC(c1ccc(F)cc1)C2` (stereo not given), the IC50 in [5] is 14.4 µM (active); in test [6], > 100 µM (inactive); in test [19], > 100 µM (not active).
